Read-outs that look alike come from different tables or passages of the source.
Legend:
HCMV AD169 strain = assay: microbe, parasite or virus in culture; assay type: cell-based, human cytomegalovirus; conditions: for reduction of HCMV viral yield: 96 h post infection; for effect on HCMV replication / yield, in words: concentrations as in the sentence or figure; for decrease in HCMV virus titer: 96 h after infection
adenovirus type 5 = assay: adenovirus replication in fibroblasts; assay type: cell-based; conditions: for decrease in adenovirus replication / titer: MOI 1, 72 h; for effect on adenovirus replication, in words: indicated amounts of drug
ACAT = conditions: cited from earlier work
Liquid Droplet = conditions: read-out: Liquid Droplet inhibition IC50; cited from earlier work
Liver ACAT = conditions: cited from earlier work
MRCS human fibroblasts = assay: host cell viability, morphology and toxicity in fibroblasts; conditions: for appearance of cells: 96 h
Procedure: Top panels: About 90% confluent MRCS human fibroblasts were treated with the indicated concentrations of triacsin C or the carrier in which the drug was dissolved (DMSO) in the presence of 10% fetal calf serum and photographed 96 h later. Bottom left panel: About 90% confluent MRCS fibroblasts were either mock infected or infected with the AD169 strain of HCMV at a multiplicity of (0.1 pfu/cell). The uninfected or infected cells received DMSO (solvent for the drug) or the drug for 96 h before cells were assayed for viability. Bottom right panel: About 90% confluent MRCS fibroblasts were infected with HCMV at a multiplicity of (0.1 pfu/cell) in the presence of DMSO (0 nM triacsin C) or triacsin C at the indicated concentrations. Infected fibroblasts were maintained in medium containing 10% fetal calf serum. Virus yield in the medium at 96 h after infection was determined by infecting fibrobalsts and assaying IE1 expression by immunofluorescence 24 h later. 96 h after infection, cells were harvested into culture medium and sonicated to release cell-associated virus. Virus yield in the medium was determined by infecting fibroblasts and assaying IE1 expression by immunofluorescence 24 h later.
The effect of triacsin C on the viability of MRCS human fibroblasts in culture medium containing 10% fetal calf serum was tested. At the time drug was added, cells were about 90% confluent.

hELOVL3 = hELOVL3 (Homo sapiens, UniProt Q9HB03); conditions: in vitro; cited from earlier work
Chain of hELOVL3 (Q9HB03 whole entry): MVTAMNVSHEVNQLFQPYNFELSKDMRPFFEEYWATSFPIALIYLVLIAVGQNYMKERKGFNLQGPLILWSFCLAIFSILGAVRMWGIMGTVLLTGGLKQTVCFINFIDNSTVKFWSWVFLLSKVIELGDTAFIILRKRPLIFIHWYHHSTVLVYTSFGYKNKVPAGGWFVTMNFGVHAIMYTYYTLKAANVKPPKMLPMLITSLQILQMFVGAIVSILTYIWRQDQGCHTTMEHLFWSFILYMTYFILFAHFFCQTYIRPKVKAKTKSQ

[1] = mice, oral, 10 mg/kg, 2 hours after treatment; cited from earlier work
late viral protein pUL99 = assay: HCMV late viral protein expression (pUL99-GFP); assay type: cell-based, human cytomegalovirus
[2] = tested on: lipid droplets in HCMV infected cells; assay: lipid droplets by oil red O staining; assay type: cell-based, human
Text: A pair of related enzymes that are both required for HCMV replication are ADP-ribosyltransferase 1 and 3 (ART1 and ART3). Inhibition of either of these enzymes led to a marked reduction in HCMV replication, ˜40-fold for ART1 and ˜10-fold for ART3. Without being bound by any particular mechanism, although ADP-ribosyltransfer is not per se a reaction of lipid metabolism, ADP ribosylation plays a key role in regulating lipid storage via targets including the protein CtBP1/BARS. Mono-ADP ribosylation of this protein results in loss of lipid droplets due to a dramatic efflux of fatty acids.
Thus host cell components involved in lipid droplet production and consumption provide antiviral targets. In addition to siRNA against the relevant cellular machinery, other means of inhibiting lipid droplet formation include the compounds spylidone, PF-1052 (a fungal natural product isolated from Phoma species), vermisporin, beauveriolides, phenochalasins, isobisvertinol, K97-0239, and rubimaillin.
Lipid droplet formation and depletion is associated with HCMV infection. At early phase of infection (2-12 hours after infection) lipid droplets are induced within the infected cells and thereafter, a complete loss of lipid droplets is observed (48-72 hours after infection).

[3] = tested on: influenza A strain WSN/33; assay: influenza A replication in fibroblasts; assay type: cell-based; conditions: for effect on influenza A growth, in words: indicated amounts of drug
HSV-1 = HSV-1 replication in fibroblasts; assay type: cell-based, herpes simplex virus type 1; conditions: for effect on HSV-1 growth, in words: indicated amounts of drug
[4] = tested on: HCV JFH1 strain derivative; assay: release of infectious HCV from Huh7.5 cells, TCID50 assay
Procedure: Huh7.5 cells were infected with a derivative of HCV JFH1 strain (MOI=0.1 TCID50/cell). Infected cells were maintained in medium containing 10% fetal calf serum plus DMSO (0 nM triacsin C) or triacsin C at the indicated concentrations. Media were harvested at 72 h and infectious virus was quantified by standard TCID50 assay on Huh7.5 cells.
Virus yield in the medium at 72 h after infection was determined.
Huh7.5 cells were infected a derivative of HCV JFH1 strain (MOI=0.1 TCID50/cell) Infected cells were maintained in medium containing 10% fetal calf serum plus DMSO (0 μg/ml TOFA) or TOFA at the indicated doses. Media were harvested at 72 h and infectious virus was quantified by standard TCID50 assay on Huh7.5 cells.
Huh7.5 cells which was infected with HCV and treated with indicated amounts of TOFA (FIG. 21).

hELOVL6 = biological target: T1, hELOVL6 (Homo sapiens, UniProt Q9H5J4); conditions: in vitro, cited from earlier work
T1 sequence (Q9H5J4 1-265): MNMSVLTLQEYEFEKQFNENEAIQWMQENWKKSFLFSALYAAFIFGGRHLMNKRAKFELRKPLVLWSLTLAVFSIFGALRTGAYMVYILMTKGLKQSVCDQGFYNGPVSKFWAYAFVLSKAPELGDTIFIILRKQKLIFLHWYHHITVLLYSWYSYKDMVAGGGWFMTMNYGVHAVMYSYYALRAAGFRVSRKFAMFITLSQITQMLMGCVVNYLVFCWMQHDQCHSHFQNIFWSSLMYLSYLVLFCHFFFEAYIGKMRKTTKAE

[5] = tested on: cholesterol ester (CE) synthesis; conditions: cited from earlier work
ACSLs = conditions: rat liver cell sonicates; cited from earlier work
[6] = tested on: triacylglycerol (TG) synthesis; conditions: cited from earlier work
atherosclerosis = conditions: oral, 10 mg/kg/day, two months, cited from earlier work
HCMV = assay: siRNA screen, infectious yield of HCMV; conditions: enzyme knockdown by siRNA; fibroblasts, HCMV 0.1 pfu/cell, 96 h
Procedure: To identify host cell enzymes whose inhibition could decrease the production of virus progeny, an siRNA screen was performed to test for roles of specific enzymes involved directly or indirectly in lipid metabolism. The siRNA screen was designed to test for effects of inhibiting specific siRNA targets on the infectious yield of HCMV. The screen was performed in 96-well plates using a portion of an siRNA library purchased from Sigma. Each target was assayed with three different siRNAs.
Also at 96 h after infection, the medium was removed from each well and used to infect fibroblasts in a new 96-well plate, and infectivity was quantified by staining for immunofluorescence and counting IE1-positive cells 24 h later.

Procedure for MDCK cells: Bottom panel: Approximately 90% confluent MDCK cells were infected with WSN/33 at a multiplicity of (0.001 pfu/cell) in the presence of PBS (0 mM) or AOAA at the indicated concentrations. Virus yield in the medium at indicated times after infection was determined by standard plaque assay on MDCK cells.
Replication of influenza A (WSN/33 strain) was measured in MDCK cells at a multiplicity of infection of 0.001 particle forming unit per cell.

NOCC(=O)O [AOAA, aminooxyacetic acid]
host cell toxicity by light microscopy (MDCK cells): no evidence of host cell toxicity
decrease in HCMV replication (HCMV AD169 strain; 0.5 mM): 100 fold
decrease in adenovirus replication / titer (adenovirus type 5; 0.5 mM): 20 fold
decrease in adenovirus replication / titer (adenovirus type 5; 1 mM): 500 fold

CC(C)c1cc(C(C)C)c(CC(=O)NS(=O)(=O)Oc2c(C(C)C)cccc2C(C)C)c(C(C)C)c1 [Avasimibe]
IC50 (ACAT): 479 nM

CCCCCCCN(Cc1ccc(CCC(C)C)cc1)C(=O)Nc1c(F)cc(F)cc1F [CL-283,546]
IC50 (Liquid Droplet): 0.035 µM

COc1cccc(C2(CNC(=O)Nc3c(C(C)C)cc(N)cc3C(C)C)CCN(c3ccccc3C)CC2)c1 [Compound 12g]
IC50 (ACAT): 68 nM

Cc1cc(NC(=O)[C@@H]2Cc3ccc(N(C)C)cc3CN2C(=O)C(C)C)c(C)c(C)c1O [Compound 21]
IC50 (Liver ACAT): 113 nM

Cc1[nH]n(-c2ccc(OC(F)(F)F)cc2)c(=O)c1C1(C(F)(F)F)C(=O)N(c2ccccc2)C2=C1C(=O)CC(C)(C)C2 (stereo not drawn) [Compound 37]
toxicity on the cells (MRCS human fibroblasts; at the antiviral doses tested): Without inducing any toxicity
IC50 (hELOVL3): ~337 nM
liver level [1]: 50 µM
plasma level [1]: 30 µM
inhibition of HCMV replication (HCMV AD169 strain; 35 μM): > 10 fold
HCMV virus yield (HCMV AD169 strain; 70 μM): undetectable levels
HCMV late pUL99 expression, in words (late viral protein pUL99): substantially reduced

N=C(N)NCc1cccc([131I])c1 [MIBG, meta-iodo-benzylguanidine]
inhibition of HCMV replication (HCMV AD169 strain; 100 μM, fibroblasts): 13 fold
HCMV-induced accumulation and depletion of lipid droplets ([2]; 100 μM): blocked

CCC(C)[C@@H]1C(=O)/C(=C(/O)[C@@H]2[C@@H]3[C@H](C)C[C@H](C)C[C@@H]3C=C[C@@H]2[C@]2(C)O[C@H]2C)C(=O)N1C (stereo partly drawn) [PF-1052]
effect on influenza A growth, in words [3]: substantially inhibited
host cell toxicity by light microscopy (MRCS human fibroblasts; 5 and 10 μM): no evidence of host cell toxicity
effect on HSV-1 growth, in words (HSV-1): substantially inhibited
reduction of HCMV viral yield (HCMV AD169 strain; 5 μM): > 50 fold
reduction of HCMV yield, prolonged treatment (HCMV AD169 strain; 5 μM, medium replaced daily, 10 days after infection): > 5000 fold
reduction of HCMV viral yield (HCMV AD169 strain; 10 μM): > 300 fold
effect on HCMV replication / yield, in words (HCMV AD169 strain): profoundly inhibits
effect on adenovirus replication, in words (adenovirus type 5): not and not inhibited
inhibition of release of infectious HCV particles ([4]; 5 μM): 10 fold
inhibition of release of infectious HCV particles ([4]; 10 μM): > 100 fold
HCMV late pUL99 expression, in words (late viral protein pUL99): markedly reduced
inhibition at 10 µM (late viral protein pUL99; Human betaherpesvirus 5, 10 μM, read-out: inhibition of HCMV late protein synthesis): > 99%

CCCCCCCCN1CCc2c(C)c(CC(=O)O)c(C)c(NC(=O)C(C)(C)C)c21 [Pactimibe]
IC50 (Liver ACAT): 312 nM

CCCCn1c(=O)c(NC(=O)Nc2c(C(C)C)cc(N)cc2C(C)C)c(-c2cccc(OCCCO)c2)c2cccnc21 [SMP-797]
IC50 (ACAT): 31 nM

CC(C)=CCc1c([C@H](O)C2OC2(C)C)ccc2[nH]c3c(c12)C[C@@H]1CC[C@@]2(O)C(C)(C)C(=O)CC[C@]2(C)[C@@]31C (stereo partly drawn) [Sespendole]
IC50 (Liquid Droplet): 4 µM

CCC(C)[C@@H]1C(=O)C2(C[C@@H]3[C@@H]4[C@H](C)C[C@H](C)C[C@@H]4C=C[C@@H]3[C@](C)(O)[C@H]2C)C(=O)N1C (stereo partly drawn) [Spylidone]
IC50 (Liquid Droplet): 42 µM

CC(C)=C[C@H]1O[C@H]2[C@H]3O[C@@]34[C@H](CC[C@@]3(C)[C@@]4(O)CC[C@H]4Cc5c([nH]c6ccccc56)[C@@]43C)O[C@@H]2C(C)(C)O1 [Terpendole C]
IC50 (Liquid Droplet): 2.5 µM

CC(=O)Nc1nnc(S(N)(=O)=O)s1 [acetazolamide]
inhibition at 25 µM (HCMV AD169 strain; Human betaherpesvirus 5, AD169, Fibroblast, read-out: inhibition of HCMV replication): ~80%

O=C(Nc1ccc(C(F)(F)F)cc1)N1C2CCC1CC(S(=O)(=O)c1ccccn1)C2 (stereo not drawn) [endo-1w]
IC50 (hELOVL6; read-out: hELOVL6 IC50): ~0.078 µM
IC50 (hELOVL6; read-out: human ELOVL6 IC50): ~6.9 µM

COC(=O)c1c2c(c3ccccc3c1O)OC(C)(C)C=C2 [rubimaillin]
decrease in HCMV virus titer (HCMV AD169 strain; 5 μM): approximately 85%
reduction of HCMV replication (HCMV AD169 strain; 10 μM): > 80%

CCC(C)(C)C(=O)O[C@H]1C[C@@H](C)C=C2C=C[C@H](C)[C@H](CC[C@@H]3C[C@@H](O)CC(=O)O3)[C@H]21 [simvastatin]
decrease in HCMV virus titer (HCMV AD169 strain; 5 μM): approximately 90%

CCC/C=C/C/C=C/C=C/C=N/NN=O [triacsin C]
effect on influenza A growth, in words [3]: substantially inhibited
inhibition of influenza A replication ([3]; nanomolar concentrations): > 10 fold
IC50 [5]: 190 nM
viability of MRC-5 fibroblasts (MRCS human fibroblasts; 50 nM, presence of serum): without discrenably impacting
appearance of cells (MRCS human fibroblasts; 100 or 250 nM, 10% fetal calf serum): did not alter the appearance of cells
cell viability (MRCS human fibroblasts; absence of fetal calf serum, doses up to 10 μM): no discernable impact
cell viability (MRCS human fibroblasts; doses of ≦500 nM, 10% fetal calf serum): little effect
appearance of cells (MRCS human fibroblasts; ≦500 nM, 10% fetal calf serum): some cell rounding
IC50 (ACSLs): ~8.7 µM
effect on HSV-1 growth, in words (HSV-1): substantially inhibited
inhibition of HSV-1 replication (HSV-1; nanomolar concentrations): > 10 fold
reduction of yield of infectious HCMV (HCMV AD169 strain; 50 nM, presence of serum): > 8 fold
reduction of yield of infectious HCMV, factor (HCMV AD169 strain; 250 nM, added with virus, 96 h, 10% serum): 85
effect on HCMV replication / yield, in words (HCMV AD169 strain): substantially inhibited
inhibition of HCMV replication (HCMV AD169 strain; nanomolar concentrations): > 10 fold
IC50 [6]: 100 nM
effect on adenovirus replication, in words (adenovirus type 5): not
progression of atherosclerosis (atherosclerosis; LDLR-/- mice): significantly inhibited
toxicities (atherosclerosis; mice): no significant toxicities noted
release of infectious HCV particles, in words ([4]; indicated amounts of drug, 72 h): significantly reduced
depletion of lipid droplets ([2]; 100 nM): > 90%
lipid droplets by oil red O staining ([2]; 250 nM): no detectable lipid droplets
lipid droplet formation induced by HCMV infection ([2]; HFF cells): reduced lipid droplet formation

CC(c1cc2ccccc2s1)N(O)C(N)=O (stereo not drawn) [zileuton]
reduction of HCMV replication (HCMV AD169 strain; 100 μM): ~90%

STX6 (sense CAAGUUGUCAGGGACAUGATT; antisense UCAUGUCCCUGACAACUUGTT; chemistry not given here)
Fold reduction of HCMV replication (HCMV): 1.92 fold

STX8 (sense GACUACUUCUGGCAUCCUUTT; antisense AAGGAUGCCAGAAGUAGUCTT; chemistry not given here)
Fold reduction of HCMV replication (HCMV): 1.96 fold

From patent publication US9168269B2, “Inhibitors of long and very long chain fatty acid metabolism as broad spectrum anti-virals” (THE TRUSTEES OF PRINCETON UNIVERSITY, priority 2010, dated 2015)
